Key:
[1] = target: T1, Class III metalloprotease BjussuMP-I (Bothrops jararacussu, UniProt Q1PHZ4); assay: proteolytic activity in casein, BjussuMP-I; format: biochemical, B. jararacussu; conditions: ratio of 1:10 protease:inhibitor (m/m)
T1 construct: BjussuMP-I isolated from B. jararacussu; from tissue; host or cells: venom of B. jararacussu
T1 sequence (Q1PHZ4 134-547): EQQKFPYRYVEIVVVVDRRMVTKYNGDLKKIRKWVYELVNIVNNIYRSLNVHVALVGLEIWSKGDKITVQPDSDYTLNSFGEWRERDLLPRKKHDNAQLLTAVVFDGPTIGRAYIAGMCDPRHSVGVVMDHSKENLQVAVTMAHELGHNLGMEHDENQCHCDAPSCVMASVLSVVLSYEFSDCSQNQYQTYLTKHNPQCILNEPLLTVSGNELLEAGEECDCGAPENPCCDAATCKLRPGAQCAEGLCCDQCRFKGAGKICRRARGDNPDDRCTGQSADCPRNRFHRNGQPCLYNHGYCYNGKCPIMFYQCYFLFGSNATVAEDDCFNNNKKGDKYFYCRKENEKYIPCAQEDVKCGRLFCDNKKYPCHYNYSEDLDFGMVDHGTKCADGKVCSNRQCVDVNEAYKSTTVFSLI

[2] = target: T2, Asp49 BthTX-II phospholipase A2 (Bothrops jararacussu, UniProt P45881); assay: myotoxic activity in mice, BthTX-II; format: in vivo, B. jararacussu
T2 construct: isolated myotoxins (BthTX-I and II); from tissue; host or cells: venom of B. jararacussu
T2 sequence (P45881 17-138): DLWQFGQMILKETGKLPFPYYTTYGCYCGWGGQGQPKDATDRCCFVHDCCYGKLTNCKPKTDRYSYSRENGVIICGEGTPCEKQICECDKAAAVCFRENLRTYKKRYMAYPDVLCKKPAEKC

[3] = target: T3, Lys49 BthTX-I phospholipase A2 (Bothrops jararacussu, UniProt Q90249); assay: myotoxic activity in mice, BthTX-I; format: in vivo, B. jararacussu
T3 construct: isolated myotoxins (BthTX-I and II); from tissue; host or cells: venom of B. jararacussu
T3 sequence (Q90249 17-137 limits assumed): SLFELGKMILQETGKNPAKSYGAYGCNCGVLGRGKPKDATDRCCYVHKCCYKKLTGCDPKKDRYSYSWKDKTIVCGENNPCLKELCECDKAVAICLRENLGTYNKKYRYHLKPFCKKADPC

For `COc1ccc2[nH]c(CO)cc(=O)c2c1` [Compound 2, 2-hydroxymethyl-6-methoxy-1,4-dihydro-4-quinolinone], the “inhibition of proteolytic activity” value [1] was ~70%, the “effect on myotoxic activity” value [2] was “inhibited” and the “effect on myotoxic activity” value [3] was “inhibited”.

Reference: patent publication US20100196476A1, “PROCESS FOR THE PREPARATION AND PHARMACEUTICAL FORMULATIONS FOR 4-QUINOLINONES AND QUINOLINES AND USE THEREOF” (FUNDACAO UNIVERSIDADE FEDERAL DE SAO CARLOS, priority 2007, published 2010)
